Results: patent US20090069320A1, “Substituted 4-Amino-Quinazoline Compounds with Metabotropic Glutamate Receptor Regulating Activity and Uses Thereof” (Gruenenthal GmbH, priority 2006, published 2009)
Where a name gives a salt, the structure may show the parent alone.

target: T1, mGluR5 receptor (Sus scrofa, UniProt I3LUI7); assay: [3H]-MPEP mGluR5 receptor binding assay (pig brain homogenate); conditions: 5 nM [3H]-MPEP, read-out: IC50 mGluR5 Receptor (pig) [^3H]-MPEP Bond
T1 construct: 450 μg of protein from brain homogenate with 5 nM ^3[H]-MPEP; from tissue; host or cells: pig brain halves without medulla, cerebellum and pons
Outline: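 Radioligand displacement of 5 nM [3H]-MPEP from pig brain homogenate (450 μg protein; medulla, cerebellum and pons removed) in 20 mM Hepes pH 8.0. Compounds were tested at 10 μM, incubated 60 min at room temperature, then filtered and counted by scintillation. Non-specific binding was defined with 10 μM MPEP.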

T1 sequence (I3LUI7 19-1212): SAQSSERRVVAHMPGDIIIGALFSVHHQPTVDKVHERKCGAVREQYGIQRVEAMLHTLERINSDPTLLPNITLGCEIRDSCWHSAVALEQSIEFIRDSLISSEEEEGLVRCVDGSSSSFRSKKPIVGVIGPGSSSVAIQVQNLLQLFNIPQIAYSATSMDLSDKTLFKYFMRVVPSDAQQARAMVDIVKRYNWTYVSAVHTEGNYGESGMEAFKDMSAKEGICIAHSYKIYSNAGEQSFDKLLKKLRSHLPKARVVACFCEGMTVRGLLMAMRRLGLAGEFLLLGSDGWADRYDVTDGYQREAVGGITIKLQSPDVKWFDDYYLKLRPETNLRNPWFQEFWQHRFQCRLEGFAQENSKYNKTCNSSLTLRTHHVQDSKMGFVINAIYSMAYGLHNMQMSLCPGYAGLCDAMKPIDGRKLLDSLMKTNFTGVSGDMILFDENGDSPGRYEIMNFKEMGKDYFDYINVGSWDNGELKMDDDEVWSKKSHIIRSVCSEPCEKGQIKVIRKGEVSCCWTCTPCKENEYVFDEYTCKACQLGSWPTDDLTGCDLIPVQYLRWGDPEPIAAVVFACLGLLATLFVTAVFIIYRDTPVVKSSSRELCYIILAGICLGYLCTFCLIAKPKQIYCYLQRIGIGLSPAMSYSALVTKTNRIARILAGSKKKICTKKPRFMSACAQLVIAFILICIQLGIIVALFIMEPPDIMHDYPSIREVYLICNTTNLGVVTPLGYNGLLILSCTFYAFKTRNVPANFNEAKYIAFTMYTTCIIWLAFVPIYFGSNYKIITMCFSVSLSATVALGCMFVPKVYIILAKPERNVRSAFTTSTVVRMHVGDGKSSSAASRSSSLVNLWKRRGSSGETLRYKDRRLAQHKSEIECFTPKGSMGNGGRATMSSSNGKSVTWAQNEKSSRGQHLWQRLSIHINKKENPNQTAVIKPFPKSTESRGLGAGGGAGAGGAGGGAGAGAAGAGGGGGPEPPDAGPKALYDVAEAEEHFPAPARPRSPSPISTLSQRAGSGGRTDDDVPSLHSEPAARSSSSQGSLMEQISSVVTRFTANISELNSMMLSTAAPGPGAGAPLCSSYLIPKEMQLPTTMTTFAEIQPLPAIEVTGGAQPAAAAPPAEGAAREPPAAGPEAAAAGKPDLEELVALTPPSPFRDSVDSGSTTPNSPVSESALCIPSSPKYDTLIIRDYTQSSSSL

| SMILES | IC50 [µM] |
| --- | --- |
| Cc1cc2ncnc(NC3CC3)c2cc1-c1cccc(CN2C(=O)CCC2=O)c1 [Example 884, 1-(3-(4-(cyclopropylamino)-7-methylquinazolin-6-yl)benzyl)pyrrolidine-2,5-dione] | 0.13 |
| O=C1CC(c2ccccc2)C(=O)N1Cc1cccc(-c2ccc3ncnc(NC4CC4)c3c2)c1 (centres unmarked) [Example 229, 1-[3-(4-cyclopropylamino-quinazolin-6-yl)-benzyl]-3-phenyl-pyrrolidine-2,5-dione; hydrochloride] | 3.5 |
| O=C1CCC(=O)N1Cc1cccc(-c2ccc3ncnc(NCc4ccccc4)c3c2)c1 [Example 199, 1-(3-(4-(benzylamino)quinazolin-6-yl)benzyl)pyrrolidine-2,5-dione] | 1.25 |

Other lines, results leading:

| IC50 [µM] | SMILES |
| --- | --- |
| 1.7 | O=C(CCc1ccccc1)N(Cc1cccc(-c2ccc3ncnc(NC4CC4)c3c2)c1)C1CC1 [Example 263, N-cyclopropyl-N-[3-(4-cyclopropylamino-quinazolin-6-yl)-benzyl]-3-phenyl-propionamide] |
| 7.34 | CC(C)NC(=O)N(Cc1cccc(-c2ccc3ncnc(NC4CC4)c3c2)c1)C1CC1 [Example 247, 1-cyclopropyl-1-[3-(4-cyclopropylamino-quinazolin-6-yl)-benzyl]-3-isopropyl-urea] |
| 0.74 | O=C(c1ccncc1)N(Cc1cccc(-c2ccc3ncnc(NC4CC4)c3c2)c1)C1CC1 [Example 257, N-cyclopropyl-N-[3-(4-cyclopropylamino-quinazolin-6-yl)-benzyl]-isonicotinamide] |
| 8.67 | c1cc(CNC2CC2)cc(-c2ccc3ncnc(NC4CC4)c3c2)c1 [Example 294, N-cyclopropyl-6-(3-((cyclopropylamino)methyl)-phenyl)quinazoline-4-amine] |
| 1.31 | O=C(c1ccno1)N(Cc1cccc(-c2ccc3ncnc(NC4CC4)c3c2)c1)C1CC1 [Example 253, isoxazole-5-carboxylic acid cyclopropyl-[3-(4-cyclopropylamino-quinazolin-6-yl)-benzyl]-amide] |
| 0.29 | COc1ccc(-c2ccc3ncnc(NC4CC4)c3c2)cc1CN(C(C)=O)C1CC1 [Example 259, N-cyclopropyl-N-[5-(4-cyclopropylamino-quinazolin-6-yl)-2-methoxy-benzyl]-acetamide] |

same assay, conditions: 10 μM compound, 5 nM [3H]-MPEP

| SMILES | % Inhibition of mGluR5 Receptor (pig) [^3H]-MPEP Bond at 10 μM [%] |
| --- | --- |
| O=S(=O)(c1c(F)c(F)c(F)c(F)c1F)N(Cc1cc(-c2ccc3ncnc(NC4CC4)c3c2)ccc1F)C1CC1 [Example 399, N-cyclopropyl-N-(5-(4-(cyclopropylamino)quinazolin-6-yl)-2-fluorobenzyl)-2,3,4,5,6-pentafluorobenzole sulfonamide] | 39 |
| CS(=O)(=O)N(Cc1cc(-c2ccc3ncnc(NC4CC4)c3c2)ccc1Cl)C1CC1 [Example 764, N-(2-chloro-5-(4-(cyclopropylamino)quinazolin-6-yl)benzyl)-N-cyclopropyl methane sulfonamide] | 87 |
| Cc1cc2ncnc(NC3CC3)c2cc1-c1cccc(CN(C2CC2)S(=O)(=O)c2c(F)c(F)c(F)c(F)c2F)c1 [Example 675, N-cyclopropyl-N-(3-(4-(cyclopropylamino)-7-methylquinazolin-6-yl)benzyl)-2,3,4,5,6-pentafluorobenzole sulfonamide] | 48 |

The remaining lines, values ahead:

| % Inhibition of mGluR5 Receptor (pig) [^3H]-MPEP Bond at 10 μM [%] | SMILES |
| --- | --- |
| 91 | O=C(c1ccno1)N(Cc1cc(-c2ccc3ncnc(NC4CC4)c3c2)ccc1Cl)C1CC1 [Example 762, N-(2-chloro-5-(4-(cyclopropylamino)quinazolin-6-yl)benzyl)-N-cyclopropyl isoxazole-5-carboxamide] |
| 69 | COc1ccc(S(=O)(=O)N(Cc2cc(-c3ccc4ncnc(NC5CC5)c4c3)ccc2F)C2CC2)cc1 [Example 383, N-cyclopropyl-N-(5-(4-(cyclopropylamino)quinazolin-6-yl)-2-fluorobenzyl)-4-methoxybenzole sulfonamide] |

same assay, conditions: 10 μM compound, 5 nM [3H]-MPEP, read-out: % Inhibition of mGluR5 Receptor (pig) [^3H]-MPEP Bond at 10 μM

| SMILES | inhibition at 10 µM [%] |
| --- | --- |
| CC(C)Nc1ncnc2ccc(-c3cccc(CN(Cc4ccccc4)C(=O)c4cnccn4)c3)cc12 [Example 45, pyrazine-2-carboxylic acid benzyl-[3-(4-isopropylamino-quinazolin-6-yl)-benzyl]-amide] | 48 |
| CC(C)Nc1ncnc2ccc(-c3cccc(CN(Cc4ccccc4)C(=O)c4ccccc4)c3)cc12 [Example 36, N-benzyl-N-[3-(4-isopropylamino-quinazolin-6-yl)-benzyl]-benzamide] | 42 |
| COC(=O)CN(Cc1cccc(-c2ccc3ncnc(NC4CC4)c3c2)c1)C(=O)CC#N [Example 190, methyl 2-(2-cyano-N-(3-(4-(cyclopropylamino)quinazolin-6-yl)benzyl)acetamido)acetate] | 58 |
| CC(C)(C)Nc1ncnc2ccc(-c3ccc(F)c(CN(C(=O)c4ccc(F)cc4F)C4CC4)c3)cc12 [Example 855, N-(5-(4-(tert-butylamino)quinazolin-6-yl)-2-fluorobenzyl)-N-cyclopropyl-2,4-difluorobenzamide] | 83 |
| CC(C)S(=O)(=O)N(Cc1cccc(-c2cc(F)c3ncnc(NC4CC4)c3c2)c1)C1CC1 [Example 824, N-cyclopropyl-N-(3-(4-(cyclopropylamino)-8-fluoroquinazolin-6-yl)benzyl)propane-2-sulfonamide] | 71 |
| O=C(c1ccccc1Cl)N(Cc1cccc(-c2ccc3ncnc(N4CCCC4)c3c2)c1)C1CC1 [Example 143, 2-chloro-N-cyclopropyl-N-[3-(4-pyrrolidin-1-yl-quinazolin-6-yl)-benzyl]-benzamide] | 71 |
| CCCN(Cc1cccc(-c2ccc3ncnc(Nc4ccccc4)c3c2)c1)C(=O)CC#N [Example 112, 2-cyano-N-[3-(4-phenylamino-quinazolin-6-yl)-benzyl]-N-propyl-acetamide] | 33 |
| Cc1cccc(CNc2ncnc3ccc(-c4cccc(CN(C(=O)c5ccncc5)C5CC5)c4)cc23)c1 [Example 403, N-cyclopropyl-N-(3-(4-(3-methylbenzylamino)quinazolin-6-yl)benzyl)isonicotinamide] | 40 |
| CC(NC1CC1)c1cccc(-c2ccc3ncnc(NC4CC4)c3c2)c1 (centres unmarked) [Example 307, N-cyclopropyl-6-(3-(1-(cyclopropylamino)ethyl)phenyl)quinazoline-4-amine] | 37 |
| COCC(=O)N(Cc1cccc(-c2cc3c(NC4CC4)ncnc3cc2C)c1)C1CC1 [Example 797, N-cyclopropyl-N-(3-(4-(cyclopropylamino)-7-methylquinazolin-6-yl)benzyl)-2-methoxyacetamide] | 85 |
| Cc1ccc(C(=O)N(Cc2cccc(-c3ccc4ncnc(N5CCOCC5)c4c3)c2)CC(C)C)cc1 [Example 22, N-isobutyl-4-methyl-N-[3-(4-morpholin-4-yl-quinazolin-6-yl)-benzyl]-benzamide] | 32 |

Next, values leading:

| inhibition at 10 µM [%] | SMILES |
| --- | --- |
| 83 | Cc1nc(C(=O)N(Cc2cc(-c3ccc4ncnc(NC5CC5)c4c3)ccc2Cl)C2CC2)cs1 [Example 769, N-(2-chloro-5-(4-(cyclopropylamino)quinazolin-6-yl)benzyl)-N-cyclopropyl-2-methylthiazole-4-carboxamide] |
| 75 | Cc1cc2ncnc(NC3CC3)c2cc1-c1cccc(CN(C(=O)c2cccc(C(F)(F)F)c2)C2CC2)c1 [Example 676, N-cyclopropyl-N-(3-(4-(cyclopropylamino)-7-methylquinazolin-6-yl)benzyl)-3-(trifluoromethyl)benzamide] |
| 73 | O=C(c1cccc(F)c1)N(Cc1cc(-c2ccc3ncnc(NC4CC4)c3c2)ccn1)C1CC1 [Example 795, N-cyclopropyl-N-((4-(4-(cyclopropylamino)quinazolin-6-yl)pyridin-2-yl)methyl)-3-fluorobenzamide] |
| 56 | CN(Cc1cccc(-c2ccc3ncnc(NC4CC4)c3c2)c1)c1ccccn1 [Example 878, N-cyclopropyl-6-(3-((methyl(pyridin-2-yl)amino)methyl)phenyl)quinazoline-4-amine] |
| 87 | Cc1cc(C(=O)N(Cc2cc(-c3ccc4ncnc(NC5CC5)c4c3)ccc2F)C2CC2)n(C)n1 [Example 435, N-cyclopropyl-N-(5-(4-(cyclopropylamino)quinazolin-6-yl)-2-fluorobenzyl)-1,3-dimethyl-1H-pyrazole-5-carboxamide] |
| 93 | O=C(CCc1ccccc1)N(Cc1cc(-c2ccc3ncnc(NC4CC4)c3c2)ccc1F)C1CC1 [Example 414, N-cyclopropyl-N-(5-(4-(cyclopropylamino)quinazolin-6-yl)-2-fluorobenzyl)-3-phenylpropanamide] |
| 36 | Cc1nc(NC2CC2)c2cc(-c3ccc(F)c(CN(C(=O)c4ccncc4)C4CC4)c3)ccc2n1 [Example 608, N-cyclopropyl-N-(5-(4-(cyclopropylamino)-2-methylquinazolin-6-yl)-2-fluorobenzyl)isonicotinamide] |
| 90 | Cc1cc2ncnc(NC3CC3)c2cc1-c1cccc(CN(C(=O)c2ccccn2)C2CC2)c1 [Example 699, N-cyclopropyl-N-(3-(4-(cyclopropylamino)-7-methylquinazolin-6-yl)benzyl)picolinamide] |
| 77 | O=C(c1cccc(C(F)(F)F)c1)N(Cc1cc(-c2ccc3ncnc(NC4CC4)c3c2)ccc1F)C1CC1 [Example 405, N-cyclopropyl-N-(5-(4-(cyclopropylamino)quinazolin-6-yl)-2-fluorobenzyl)-3-(trifluoromethyl)benzamide] |
| 63 | O=C(c1cccc(C(F)(F)F)c1)N(Cc1cc(-c2ccc3ncnc(NC4CC4)c3c2)ccc1Cl)C1CC1 [Example 732, N-(2-chloro-5-(4-(cyclopropylamino)quinazolin-6-yl)benzyl)-N-cyclopropyl-3-(trifluoromethyl)benzamide] |
